In patent publication US4248882A, “Treating diabetes-associated complications with hydantoin amines” (Pfizer Inc., priority 1980, dated 1981):
Structures can show the parent of a compound that is named as a salt.

Experiments:
[1] = test system: sorbitol accumulation in the sciatic nerve; assay: inhibition of sorbitol accumulation in the sciatic nerve of streptozotocinized (diabetic) rats; type: in vivo; details: oral 0.25 mg/kg at 4, 8 and 24 hours following streptozotocin; sorbitol in sciatic nerves measured 27 hours after induction of diabetes; versus untreated animal
Protocol: The compounds of Example 2 and 4 were tested for their ability to reduce or inhibit sorbitol accumulation in the sciatic nerve of streptozotocinized (i.e. diabetic) rats by the procedure essentially described in U.S. Pat. No. 3,821,383. In the present study, the amount of sorbitol accumulation in the sciatic nerves was measured 27 hours after induction of diabetes. The compounds were administered orally at the dose levels of 0.25 mg/kg at 4, 8 and 24 hours following the administration of streptozotocin. The results obtained in this manner are presented below in terms of percent inhibition (%) afforded by the test compound as compared to the case where no compound was administered (i.e. the untreated animal, where sorbitol levels normally rise from approximately […]. tissue to as high as 400 mM/g. tissue in the 27 hour test period): […]

aldose reductase = assay: inhibition of aldose reductase enzyme activity (partially purified enzyme from human placenta); type: biochemical; details: percent inhibition of enzyme activity
Protocol: The compounds of Example 2 and 4 were tested for their ability to reduce or inhibit aldose reductase enzyme activity, following the procedure described in U.S. Pat. No. 3,821,383 and based on the procedure of Hayman et. al., Journal of Biological Chemistry, 240 877 (1965). The substrate employed was partially purified aldose reductase enzyme obtained from human placenta. The results obtained with each compound at a concentration of 10^-6 M are expressed as percent inhibition of enzyme activity.

Row | Compound | % Inhibition at 0.25 mg/kg [1] [%] | % Inhibition at 10^-6 M (aldose reductase) [%]
1 | Nc1cc(Cl)cc2c1OCCC21NC(=O)NC1=O (stereo not shown) [Example 2, 8-Amino-6-chloro-spiro[4H-2,3-dihydro-1-benzopyran-4,4'-imidazolidine]-2',5'-dione hydrochloride] | 17 | 58
2 | Nc1cc(F)cc2c1OCC[C@]21NC(=O)NC1=O [Example 4, 4S-8-amino-6-fluoro-spiro[4H-2,3-dihydro-1-benzopyran-4,4'-imidazolidine]-2',5'-dione hydrochloride] | 40 | 40
